Data on five molecules can be found in patent EP0714604A1, “A composition having insecticidal and acaricidal properties” (MITSUI TOATSU CHEMICALS, INCORPORATED, priority 1994, dated 1996).

Holding throughout (assay type): in vivo
Series [1] relates to second-instar larvae of the diamond-back moth. As to the kind of experiment: Test 8: effect on the diamondback moth (residual activity on sprayed potted cabbages). Particulars: dead larvae 2 days after feeding. An excerpt:
Potted cabbages were sprayed with a diluted fluid of an emulsion of a compound of the general formula (1) [i.e., 10% Anniverse Emulsion (Compound No.1), 20% Trebon Emulsion (Compound No.2), an emulsion of Compound No.3, an emulsion of Compound No.4, or Shironen Emulsion (Compound No.5)], 0.6% Avermectin Emulsion or a mixture thereof to such an extent that the fluid dripped from their leaves. Subsequently, cabbage leaves were sampled at predetermined intervals and fed to second-instar larvae of the diamond-back moth. Then, the number of dead larvae was examined after 2 days from the feeding.

The test system of series [2] is resistant strain (selected by Compound No.1) of the Kanzawa spider mite. The experiment in a line: Test 9: effect on a resistant strain (selected by Compound No.1) of the Kanzawa spider mite (LC50). Particulars: eggs on kidney bean leaf sections sprayed, 25°C, eight days after the treatment. As to the method: (§1) About 2 cm square sections of kidney bean leaves were placed on wetted absorbent cotton. Then, 7 female adults of the Kanzawa spider mite were inoculated on each leaf section and allowed to deposit eggs. After 24 hours, the adult mites were removed, various dilutions of an emulsion of a compound of the general formula (1) [i.e., 20% Trebon Emulsion (Compound No.2), an emulsion of Compound No.3, an emulsion of Compound No.4, or Shironen Emulsion (Compound No.5)], 1% Milbenock Emulsion or a mixture thereof were sprayed by means of a tower sprayer, and the leaf sections were maintained in a thermostatic chamber kept at 25°C. Eight days after the treatment, the numbers of surviving mites, dead mites, unhatched eggs and escaping mites were examined. Thus, the survival rates at various concentrations were calculated and the LC₅₀ value (in ppm) was determined therefrom.
(§2) In order to evaluate the synergistic effect of each compound of the general formula (1) and the macrolide compound, the combined toxicity index was calculated from the LC₅₀ values of the respective compounds in the same manner as in Test 1.

Series [3] concerns resistant strain of the Kanzawa spider mite. The experiment in a line: Test 2: effect on a resistant strain of the Kanzawa spider mite (leaf section spray, LC50). Conditions: eggs on kidney bean leaf sections sprayed, 25°C, eleven days after the treatment. As to the method: as §1, with “removed, 4 ml each of” for “removed,”, “10% Anniverse Emulsion (Compound No.1),” for “an emulsion of a compound of the general formula (1) [i.e.,”, “0.6% Avermectin” for “an emulsion of Compound No.3, an emulsion of Compound No.4, or Shironen Emulsion (Compound No.5)], 1% Milbenock”, “Eleven” for “Eight”
as §2

The test system of another series is Kanzawa spider mite. The experiment in a line: Test 5: effect on the Kanzawa spider mite living on potted kidney bean plants (mite counts). Conditions: Compound No.1 25 ppm, 51 before treatment. The text has this:
Potted kidney bean plants in the first true leaf stage were inoculated with female adults of the Kanzawa spider mite and allowed to stand in a greenhouse for about a week. After leaves infested with Kanzawa spider mites were marked, the kidney bean plants were sprayed with a diluted fluid of 10% Anniverse Emulsion (Compound No.1), a macrolide compound (i.e., 0.6% Avermectin Emulsion or 1% Milbenock Emulsion) or a mixture thereof to such an extent that the fluid dripped from their leaves. The number of Kanzawa spider mites living on the marked leaves was counted 2, 7, 12, 16 and 27 days after the treatment.

The subject of series [4] is sensitive strain of the Kanzawa spider mite. As to the kind of experiment: Test 1: effect on a sensitive strain of the Kanzawa spider mite (leaf section spray, LC50). Conditions: eggs on kidney bean leaf sections sprayed, 25°C, eleven days after the treatment. The method, then:
as §1, with “removed, 4 ml each of” for “removed,”, “10% Anniverse” for “an emulsion of a compound of the general formula (1) [i.e., 20% Trebon”, “No.1), 0.6% Avermectin” for “No.2), an emulsion of Compound No.3, an emulsion of Compound No.4, or Shironen Emulsion (Compound No.5)], 1% Milbenock”, “Eleven” for “Eight”
In order to evaluate the synergistic effect of the compound of the general formula (1) and the macrolide compound, the combined toxicity index was calculated from the LC₅₀ values of the respective compounds according to the equation of Y.P. Sun et al. (J. Econ. Ent., 53(5), 887, 1960).
The equation of Y.P. Sun et al. for calculating the combined toxicity index is more fully explained below. […]

In series [5] the test system is resistant strain of the greenhouse whitefly. The experiment in a line: Test 6: effect on a resistant strain of the greenhouse whitefly (eggs on leaf sections, LC50). Particulars: one-day-old eggs on kidney bean leaf sections sprayed, 25°C, twelve days after the treatment. As to the method:
About 2 cm square sections of kidney bean leaves on which one-day-old eggs of the greenhouse whitefly had been deposited were placed on wetted absorbent cotton, sprayed with 4 ml each of various dilutions of 10% Anniverse Emulsion (Compound No.1), 0.6% Avermectin Emulsion or a mixture thereof by means of a tower sprayer, and maintained in a thermostatic chamber kept at 25°C. Twelve days after the treatment, the numbers of surviving insects, dead insects, unhatched eggs and escaping insects were examined. Thus, the survival rates at various concentrations were calculated and the LC₅₀ value (in ppm) was determined therefrom.

In series [6] the test system is resistant strain of the citrus red mite. The experiment in a line: Test 4: effect on a resistant strain of the citrus red mite (leaf section spray, LC50). Conditions: eggs on mandarin tree leaf sections sprayed, 25°C, eleven days after the treatment. The method, then:
as §1, with “mandarin tree” for “kidney bean”, “citrus red” for “Kanzawa spider”, “removed, 4 ml each of” for “removed,”, “10% Anniverse” for “an emulsion of a compound of the general formula (1) [i.e., 20% Trebon”, “No.1), 0.6% Avermectin” for “No.2), an emulsion of Compound No.3, an emulsion of Compound No.4, or Shironen Emulsion (Compound No.5)], 1% Milbenock”, “Eleven” for “Eight”

For the next series, the system named is green peach aphid. The experiment in a line: Test 7: effect on the green peach aphid living on eggplants (population density). Conditions: Compound No.1 25 ppm, before treatment = 100. The method, then:
After leaves naturally infested with green peach aphids were marked, eggplants were sprayed with a diluted fluid of 10% Anniverse Emulsion (Compound No.1), 0.6% Avermectin Emulsion or a mixture thereof to such an extent that the fluid dripped from their leaves. The number of green peach aphids living on the marked leaves was counted 2, 7, 14, 21 and 28 days after the treatment, and the corrected population density index was calculated according to the equation given below. Corrected population density index =((Number of insects after treatment in treated division)/(Number of insects before treatment in treated division))/((Number of insects after treatment in untreated division)/(Number of insects before treatment in untreated division))x 100 [formula]

Series [7] concerns resistant strain of the Kanzawa spider mite. The experiment in a line: Test 3: effect on a resistant strain of the Kanzawa spider mite, Milbenock Emulsion as macrolide (LC50). Particulars: 1% Milbenock Emulsion as macrolide, eleven days after the treatment. The method, then: A test was carried out in the same manner as in Test 1, except that, in place of 0.6% Avermectin Emulsion, 1% Milbenock Emulsion was used as the macrolide compound.

Setting [8] is: compound of formula (1) alone 50 ppm, leaves sampled 2 days after treatment.
[9] abbreviates: compound of formula (1) alone 50 ppm, leaves sampled 7 days after treatment.
The mark [10] stands for this setting: compound of formula (1) alone 50 ppm, leaves sampled 14 days after treatment.
The mark [11] stands for this setting: compound of formula (1) alone 50 ppm, leaves sampled 21 days after treatment.
The mark [12] stands for this setting: compound of formula (1) alone 50 ppm, leaves sampled 28 days after treatment.
Where [13] appears, read: compound of formula (1) alone 50 ppm, leaves sampled 35 days after treatment.

For the molecule `CCOc1ccc(C(C)(C)CCCc2cccc(Oc3ccccc3)c2)cc1` [Compound No.3], the Death rate is reported as 70% in series [1] (setting [8]); 45% in [1] (setting [9]); 15% in [1] (setting [10]); 40% in series [1] (setting [11]); 35% in series [1] (setting [12]); 5% in series [1] (setting [13]). The LC₅₀ value in [2] amounted to 519 ppm.

Consider `CCOc1ccc(C(C)(C)COCc2cccc(Oc3ccccc3)c2)cc1` [Compound No.2], for which the Death rate in series [1] (setting [8]) is 38%; in [1] (setting [9]) it was 15%; in [1] (setting [10]), 25%; in [1] (setting [11]), 11%. Besides, the LC₅₀ value in series [2] is recorded as 375 ppm; in [3], 162 ppm.

On to `CCOc1ccc(C(C)(C)CCCc2ccc(F)c(Oc3ccccc3)c2)cc1` [Compound No.4], for which the Death rate in series [1] (setting [8]) stood at 94%; in series [1] (setting [9]), 65%; in series [1] (setting [10]), 60%; in series [1] (setting [11]), 10%; in [1] (setting [12]) it was 0%; in series [1] (setting [13]) it was 0%. Moreover, the LC₅₀ value in series [2] was found to be 94 ppm.

For the molecule `CC(C)(COCc1cccc(Oc2ccccc2)c1)c1ccc(OC(F)(F)Br)cc1` [Compound No.1], the “Number of living mites” value is given as 0 in the series on Kanzawa spider mite (2 days after treatment); 0 in the series on Kanzawa spider mite (7 days after treatment); 0 in the series with Kanzawa spider mite (12 days after treatment); 27 in the series with Kanzawa spider mite (16 days after treatment); 102 in the series on Kanzawa spider mite (27 days after treatment). For the same molecule, the LC₅₀ value is 1.13 ppm in series [4]; 630 ppm in series [5]; 2000 ppm in [6]; 11.5 ppm in series [7]; 11.5 ppm in [3]. Besides, the Death rate in [1] (compound of formula (1) alone 25 ppm, leaves sampled 2 days after treatment) amounted to 90%; in [1] (compound of formula (1) alone 25 ppm, leaves sampled 7 days after treatment) it was 10%; in series [1] (compound of formula (1) alone 25 ppm, leaves sampled 14 days after treatment) it was 0%; in series [1] (compound of formula (1) alone 25 ppm, leaves sampled 21 days after treatment), 0%. The “Corrected population density index” value in the series with green peach aphid (2 days after treatment) came out at 0; in the series on green peach aphid (7 days after treatment) it was 0.3; in the series with green peach aphid (14 days after treatment), 2.5; with green peach aphid (21 days after treatment) it was 42.5; with green peach aphid (28 days after treatment), 96.5.

In the case of `CCOc1ccc([Si](C)(C)CCCc2ccc(F)c(Oc3ccccc3)c2)cc1` [Compound No.5], the Death rate in series [1] (setting [8]) was 95%; in [1] (setting [9]), 73%; in series [1] (setting [10]), 50%; in [1] (setting [11]), 15%; in [1] (setting [12]) it was 0%; in [1] (setting [13]), 0%. The LC₅₀ value in series [2] amounted to 1150 ppm.
